The values that follow come from ChEMBL document CHEMBL3868610, “Novel bicyclo[3.1.0]hexane analogs as antagonists of metabotropic glutamate 2/3 receptors for the treatment of depression” (Bioorg Med Chem Lett, 2016).

Each structure is given as a SMILES string. Calls of active or inactive are those of the source. No cut-off for these calls is given here. Bounds are passed on as bounds.

Assay [1] deals with T1, Metabotropic glutamate receptor 3 (Homo sapiens, UniProt Q14832). As to the kind of experiment: Antagonist activity at recombinant human mGlu3 receptor expressed in hamster AV12 cells co-expressing human EAAT1 assessed as reduction of DCG-4-inhibited forskolin-stimulated cAMP formation after 20 mins by HTRF assay. The class given is functional, cell-based.
Assay [2] has as its target T1, Metabotropic glutamate receptor 3. Description: Antagonist activity at recombinant human mGlu3 receptor expressed in hamster AV12 cells assessed as inhibition of DCG-4-inhibited forskolin-stimulated cAMP formation up to 25 uM after 20 mins by HTRF assay relative to control. In kind it is functional, cell-based.
Target sequence in this assay (Q14832 23-879 limits assumed): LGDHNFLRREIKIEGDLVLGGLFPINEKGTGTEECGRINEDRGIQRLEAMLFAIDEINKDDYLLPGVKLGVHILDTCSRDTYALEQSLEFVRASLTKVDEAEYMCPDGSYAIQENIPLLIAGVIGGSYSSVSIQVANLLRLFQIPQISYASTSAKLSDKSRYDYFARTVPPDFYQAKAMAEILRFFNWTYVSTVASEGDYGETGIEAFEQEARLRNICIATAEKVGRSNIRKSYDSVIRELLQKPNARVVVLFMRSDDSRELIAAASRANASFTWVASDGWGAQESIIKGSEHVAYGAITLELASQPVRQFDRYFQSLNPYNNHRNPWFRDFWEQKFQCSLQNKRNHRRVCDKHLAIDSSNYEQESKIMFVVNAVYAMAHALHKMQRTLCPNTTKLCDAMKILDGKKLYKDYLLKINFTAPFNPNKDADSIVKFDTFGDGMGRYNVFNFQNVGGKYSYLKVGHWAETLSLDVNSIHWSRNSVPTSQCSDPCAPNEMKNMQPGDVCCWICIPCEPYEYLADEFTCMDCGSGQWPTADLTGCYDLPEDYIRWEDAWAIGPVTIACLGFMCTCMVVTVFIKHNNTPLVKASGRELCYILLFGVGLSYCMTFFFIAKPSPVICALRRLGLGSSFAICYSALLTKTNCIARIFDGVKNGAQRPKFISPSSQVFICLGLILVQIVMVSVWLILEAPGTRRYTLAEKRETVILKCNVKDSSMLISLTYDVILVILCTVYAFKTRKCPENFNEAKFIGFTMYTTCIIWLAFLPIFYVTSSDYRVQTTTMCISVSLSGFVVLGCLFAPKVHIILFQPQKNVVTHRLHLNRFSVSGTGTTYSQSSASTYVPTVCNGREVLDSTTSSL
The target in assay [3] is T2, Metabotropic glutamate receptor 2 (Homo sapiens, UniProt Q14416). As to the kind of experiment: Antagonist activity at recombinant human mGlu2 receptor expressed in hamster AV12 cells co-expressing human EAAT1 assessed as reduction of DCG-4-inhibited forskolin-stimulated cAMP formation after 20 mins by HTRF assay. In kind it is functional, cell-based.
Assay [4] concerns the target T2, Metabotropic glutamate receptor 2. Description: Antagonist activity at recombinant human mGlu2 receptor expressed in hamster AV12 cells assessed as inhibition of DCG-4-inhibited forskolin-stimulated cAMP formation up to 25 uM after 20 min by HTRF assay relative to control. The class given is functional, cell-based.
Target sequence in this assay (Q14416 19-872 limits assumed): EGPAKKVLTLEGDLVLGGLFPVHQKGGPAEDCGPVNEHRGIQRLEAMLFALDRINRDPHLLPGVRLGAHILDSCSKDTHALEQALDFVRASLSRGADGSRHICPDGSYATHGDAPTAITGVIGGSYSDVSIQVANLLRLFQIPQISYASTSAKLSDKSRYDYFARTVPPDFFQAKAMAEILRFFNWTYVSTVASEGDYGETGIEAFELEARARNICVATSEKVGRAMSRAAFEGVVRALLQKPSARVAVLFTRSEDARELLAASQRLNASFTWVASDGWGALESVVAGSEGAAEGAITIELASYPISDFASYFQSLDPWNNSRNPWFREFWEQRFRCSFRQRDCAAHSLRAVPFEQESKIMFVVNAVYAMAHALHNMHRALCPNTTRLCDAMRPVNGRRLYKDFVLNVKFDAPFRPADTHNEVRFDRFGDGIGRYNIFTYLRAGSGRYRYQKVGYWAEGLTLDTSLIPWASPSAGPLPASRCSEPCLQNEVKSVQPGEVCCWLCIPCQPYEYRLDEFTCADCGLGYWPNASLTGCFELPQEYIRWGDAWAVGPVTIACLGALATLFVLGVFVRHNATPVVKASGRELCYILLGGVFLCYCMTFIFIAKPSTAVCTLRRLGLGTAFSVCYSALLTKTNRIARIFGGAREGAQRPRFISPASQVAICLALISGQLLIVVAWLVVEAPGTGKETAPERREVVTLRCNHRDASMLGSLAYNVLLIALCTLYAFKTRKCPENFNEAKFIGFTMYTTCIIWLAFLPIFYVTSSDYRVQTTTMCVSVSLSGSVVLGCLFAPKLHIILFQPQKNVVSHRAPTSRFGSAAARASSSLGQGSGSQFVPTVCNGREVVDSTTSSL
Assay [5] shares this target. Description: Displacement of [3H]-LY459477 from human mGlu2 receptor expressed in hamster AV12 cell membranes co-expressing human EAAT1 after 90 mins by liquid scintillation counting method.
Target sequence in this assay (Q14416 whole entry): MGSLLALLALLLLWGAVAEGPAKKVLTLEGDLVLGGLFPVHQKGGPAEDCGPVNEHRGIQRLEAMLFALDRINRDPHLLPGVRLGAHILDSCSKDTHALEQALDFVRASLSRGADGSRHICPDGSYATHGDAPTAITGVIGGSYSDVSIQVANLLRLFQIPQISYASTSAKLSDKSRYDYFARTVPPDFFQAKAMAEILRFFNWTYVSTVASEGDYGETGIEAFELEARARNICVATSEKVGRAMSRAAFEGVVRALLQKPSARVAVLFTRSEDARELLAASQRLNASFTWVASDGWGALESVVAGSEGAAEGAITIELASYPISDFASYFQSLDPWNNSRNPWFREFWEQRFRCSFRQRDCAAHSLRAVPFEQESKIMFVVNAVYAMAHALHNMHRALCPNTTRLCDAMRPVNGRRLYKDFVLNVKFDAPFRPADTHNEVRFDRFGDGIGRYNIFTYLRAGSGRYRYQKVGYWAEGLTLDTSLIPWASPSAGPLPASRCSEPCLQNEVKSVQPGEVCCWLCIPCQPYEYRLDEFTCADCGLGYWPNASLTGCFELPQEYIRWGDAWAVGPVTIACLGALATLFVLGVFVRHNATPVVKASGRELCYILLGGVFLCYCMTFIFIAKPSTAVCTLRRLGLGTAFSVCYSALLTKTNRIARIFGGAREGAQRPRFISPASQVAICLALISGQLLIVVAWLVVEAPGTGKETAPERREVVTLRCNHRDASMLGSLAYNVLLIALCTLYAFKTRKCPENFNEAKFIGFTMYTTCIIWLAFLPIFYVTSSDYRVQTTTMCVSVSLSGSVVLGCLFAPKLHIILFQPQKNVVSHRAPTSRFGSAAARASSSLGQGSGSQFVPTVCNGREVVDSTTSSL
Assay [6] can be described thus: Antidepressant activity in ip dosed NIH Swiss Webster mouse assessed as reduction in immobility time administered 30 mins prior to evaluation measured on the last 4 mins of the 6 mins observation time by forced swim test. In kind it is functional, organism-based.
Assay [7] can be described thus: Antidepressant activity in ip dosed NIH Swiss Webster mouse assessed as reduction in immobility time administered 30 mins prior to evaluation measured on the last 4 mins of the 6 mins observation time by forced swim test realtive to control. In kind it is functional, organism-based.
The target of assay [8] is T1, Metabotropic glutamate receptor 3. Description: Displacement of [3H]-LY459477 from human mGlu3 receptor expressed in hamster AV12 cell membranes co-expressing human EAAT1 after 90 mins by liquid scintillation counting method.
Target sequence in this assay (Q14832 whole entry): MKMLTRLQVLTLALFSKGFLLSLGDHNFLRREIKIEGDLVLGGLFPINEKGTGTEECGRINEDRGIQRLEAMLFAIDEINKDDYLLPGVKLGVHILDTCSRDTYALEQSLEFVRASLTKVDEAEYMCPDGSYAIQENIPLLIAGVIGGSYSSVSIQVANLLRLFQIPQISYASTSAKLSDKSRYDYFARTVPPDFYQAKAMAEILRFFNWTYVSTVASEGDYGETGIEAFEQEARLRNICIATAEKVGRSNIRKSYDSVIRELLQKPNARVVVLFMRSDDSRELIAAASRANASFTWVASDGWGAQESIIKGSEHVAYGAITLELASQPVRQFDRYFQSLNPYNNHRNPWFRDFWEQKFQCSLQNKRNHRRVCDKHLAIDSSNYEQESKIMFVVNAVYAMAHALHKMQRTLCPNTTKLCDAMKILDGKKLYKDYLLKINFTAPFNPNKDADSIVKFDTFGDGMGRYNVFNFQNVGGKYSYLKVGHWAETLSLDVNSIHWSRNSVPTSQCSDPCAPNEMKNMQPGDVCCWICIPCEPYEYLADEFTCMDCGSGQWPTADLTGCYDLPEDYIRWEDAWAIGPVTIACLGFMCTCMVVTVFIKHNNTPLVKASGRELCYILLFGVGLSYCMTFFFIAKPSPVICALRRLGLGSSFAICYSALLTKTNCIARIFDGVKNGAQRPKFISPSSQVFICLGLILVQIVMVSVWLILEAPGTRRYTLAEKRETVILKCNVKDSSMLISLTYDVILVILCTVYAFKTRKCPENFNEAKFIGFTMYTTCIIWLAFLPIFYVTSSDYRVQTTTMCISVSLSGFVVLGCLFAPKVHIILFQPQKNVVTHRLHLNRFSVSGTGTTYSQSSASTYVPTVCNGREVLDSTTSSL

Consider `Cc1cc(CO[C@@H]2[C@H](O)[C@H]3[C@H](C(=O)O)[C@H]3[C@]2(N)C(=O)O)ccc1F`, for which, in assay [1], the 50% inhibitory concentration (IC50) was 85 nM and the Imax is above 94%. Besides, the inhibition entry in assay [2] was “Active”.

`N[C@]1(C(=O)O)[C@@H]2[C@@H](C(=O)O)[C@@H]2[C@@H](O)[C@H]1OCc1ccc(Cl)cc1`: the concentration for half-maximal inhibition (IC50) was determined as 145 nM in assay [1] and 210 nM in assay [3]. Further, the Imax in assay [1] and in assay [3] was above 94% each time. The inhibition result in assay [4] and in assay [2] was “Active” in each case.

With `N[C@@]1(C(=O)O)C[C@H](O)[C@H]2[C@H](C(=O)O)[C@H]21`, the affinity in assay [5] corresponds to a Ki of 230 nM.

Turning to `N[C@]1(C(=O)O)[C@@H]2[C@@H](C(=O)O)[C@@H]2[C@@H](O)[C@H]1OCc1ccccc1`, in assay [1], the 50% inhibitory concentration (IC50) worked out at 239 nM and the Imax is above 94%. Further, the inhibition entry in assay [2] is “Active”.

As for `N[C@]1(C(=O)O)[C@@H]2[C@@H](C(=O)O)[C@@H]2[C@H](Sc2ncc[nH]2)[C@H]1OCc1ccc(Cl)c(Cl)c1`, in assay [1], the IC50 was 38.5 nM and the Imax was above 94%. Also, the inhibition result in assay [2] is “Active”. In addition, in assay [6], the ED60 is 9.1 mg/kg and the MED is 10 mg/kg. Besides, in assay [7], the maximal response (Emax) worked out at 41%.

With `N[C@]1(C(=O)O)[C@@H]2[C@@H](C(=O)O)[C@@H]2[C@@H](O)[C@H]1OCc1ccc(Cl)c(Cl)c1`, the Ki in assay [5] came out at 76 nM. The IC50 amounted to 153 nM in assay [1] and 169 nM in assay [3]. The Imax in assay [1] and in assay [3] was above 94% each time. Further, the inhibition entry in assay [4] and in assay [2] was “Active” throughout.

`N[C@H]1[C@H]2[C@H](C(=O)O)[C@H]2[C@](N)(C(=O)O)[C@@H]1OCc1ccc(Cl)c(Cl)c1`: the 50% inhibitory concentration (IC50) in assay [1] is 1070 nM; in assay [3] it was 1130 nM. For the same molecule, the Imax in assay [1] and in assay [3] was above 94% each time. Also, the inhibition entry in assay [4] and in assay [2] was “Active” throughout.

In the case of `N[C@]1(C(=O)O)[C@@H]2[C@@H](C(=O)O)[C@@H]2[C@@H](O)[C@H]1OCc1cccc(Cl)c1`, the IC50 is 178 nM in assay [1] and 280 nM in assay [3]. Further, the Imax in assay [1] and in assay [3] was above 94% each time. For the same molecule, the inhibition entry in assay [4] and in assay [2] was “Active” each time.

As to `N[C@@]1(C(=O)O)[C@H](Cc2ccc(F)c(Cl)c2)C[C@H]2[C@H](C(=O)O)[C@H]21` (racemic), the IC50 in assay [1] amounted to 76.1 nM.

Turning to `N[C@]1(C(=O)O)[C@@H]2[C@@H](C(=O)O)[C@@H]2[C@@H](O)[C@H]1OCc1cc(Cl)ccc1Cl`, in assay [1], the IC50 came out at 185 nM and the Imax is above 94%. In addition, the inhibition result in assay [2] was “Active”.

On to `N[C@]1(C(=O)O)[C@@H]2[C@@H](C(=O)O)[C@@H]2[C@H](F)[C@H]1OCc1ccc(Cl)c(Cl)c1`, for which, in assay [1], the IC50 was determined as 71 nM and the Imax is above 94%. For the same molecule, the inhibition result in assay [2] is “Active”.

As to `[N-]=[N+]=N[C@H]1[C@H]2[C@H](C(=O)O)[C@H]2[C@](N)(C(=O)O)[C@@H]1OCc1ccc(Cl)c(Cl)c1`, the half-inhibitory concentration (IC50) in assay [1] turned out to be 54.1 nM; in assay [3], 34.5 nM. The Imax in assay [1] and in assay [3] was above 94% in each case. The inhibition result in assay [4] and in assay [2] was “Active” each time.

On to `N[C@]1(C(=O)O)[C@@H]2[C@@H](C(=O)O)[C@@H]2[C@@H](O)[C@H]1OCc1cccc(Cl)c1Cl`, for which, in assay [1], the IC50 turned out to be 83.2 nM and the Imax was above 94%. The inhibition entry in assay [2] is “Active”.

Regarding `N[C@]1(C(=O)O)[C@@H]2[C@@H](C(=O)O)[C@@H]2[C@H](Sc2nc[nH]n2)[C@H]1OCc1ccc(Cl)c(Cl)c1`, the Ki was found to be 7.43 nM in assay [5] and 2.7 nM in assay [8]. In addition, the IC50 is 23.5 nM in assay [1] and 12.7 nM in assay [3]. In addition, the Imax in assay [1] and in assay [3] was above 94% in each case. In addition, the inhibition result in assay [4] and in assay [2] was “Active” each time. Further, the ED60 in assay [6] turned out to be 2.08 mg/kg. The MED in assay [6] turned out to be 3 mg/kg. Moreover, in assay [7], the Emax was found to be 62%.

Regarding `COC(=O)N[C@H]1[C@H]2[C@H](C(=O)O)[C@H]2[C@](N)(C(=O)O)[C@@H]1OCc1ccc(Cl)c(Cl)c1`, in assay [1], the IC50 was determined as 20.5 nM and the Imax is above 94%. Moreover, in assay [3], the IC50 worked out at 18.8 nM and the Imax is above 94%. Moreover, in assay [4], the inhibition entry was “Active”. Besides, the inhibition result in assay [2] is “Active”. In assay [6], the ED60 is 7.95 mg/kg and the MED was found to be 10 mg/kg. Besides, in assay [7], the Emax turned out to be 46%.

Take `N[C@]1(C(=O)O)[C@@H]2[C@@H](C(=O)O)[C@@H]2[C@@H](O)[C@H]1OCc1ccc(Cl)c(F)c1`: in assay [1], the IC50 turned out to be 127 nM and the Imax was above 94%. Further, in assay [2], the inhibition result is “Active”.

`N[C@@]1(C(=O)O)C[C@@H](O)[C@H]2[C@H](C(=O)O)[C@H]21`: the Ki in assay [5] is 166 nM. In other words, the sub-micromolar range.

Consider `Cn1ncnc1S[C@H]1[C@H]2[C@H](C(=O)O)[C@H]2[C@](N)(C(=O)O)[C@@H]1OCc1ccc(Cl)c(Cl)c1`, for which, in assay [1], the half-maximal inhibitory concentration (IC50) was found to be 29.6 nM and the Imax was above 94%. Besides, in assay [3], the concentration for half-maximal inhibition (IC50) worked out at 19.9 nM and the Imax was above 94%. For the same molecule, the inhibition result in assay [4] is “Active”. Also, the inhibition entry in assay [2] is “Active”. Besides, in assay [6], the ED60 came out at 7.3 mg/kg and the MED was 10 mg/kg. For the same molecule, the maximal effect (Emax) in assay [7] is 47%.

In the case of `CC(=O)N[C@H]1[C@H]2[C@H](C(=O)O)[C@H]2[C@](N)(C(=O)O)[C@@H]1OCc1ccc(Cl)c(Cl)c1`, in assay [1], the 50% inhibitory concentration (IC50) was 14.3 nM and the Imax was above 94%. For the same molecule, in assay [3], the IC50 stood at 26.1 nM and the Imax was above 94%. Moreover, the inhibition entry in assay [4] was “Active”. In addition, in assay [2], the inhibition entry is “Active”. Also, in assay [6], the ED60 amounted to 9.1 mg/kg and the MED worked out at 30 mg/kg. Also, the Emax in assay [7] worked out at 41%.
